Results published in PMC3446921, “Enhanced Solubilisation of Six PAHs by Three Synthetic Cyclodextrins for Remediation Applications: Molecular Modelling of the Inclusion Complexes” (PLoS ONE, 2012).
In brackets after ≈: the same amount, converted by molar mass. Several values for one entry are separate records, joined by “and”; a condition that tells them apart may be missing. Equal entries are not always repeated.

Experiments:
[1] = Phase solubility studies: comparison of the six PAHs across the three CDs; conditions: for Decreasing order of Se and Kc: per CD; for Decreasing order of PAHs apparent solubility: reached with 0.1 M of the CD
[2] = Phase solubility studies (Higuchi and Connors) with RAMEB; conditions: for Apparent stability constant Kc: RAMEB 0 to 0.1 M, 1:1 complex, 25°C; for solubility at 1 week: 25 °C, aqueous with cosolvent or surfactant or cyclodextrin, thermodynamic from solid
[3] = 1 week
Method: (§1) 5 mg of each PAH were added to aqueous solutions (10 mL) containing increasing dissolved concentrations (from 0 to 0.1 M) of each CD. The experiments were carried out in triplicate. Flasks were sealed and shaken at 25°C for 1 week. The concentration of each PAH in solution was determined using a Shimadzu HPLC chromatograph equipped with a chromatographic column, Kromasil 100 C18 reverse-phase (5 µm, 15×0.4), coupled to a fluorescence detector (Shimadzu RF-10APXL). The chromatographic conditions were as follows: mobile phase, acetonitrile/water (60∶40); flow, 1.5 mL min^−1; temperature, 30°C. […] To obtain the phase solubility diagrams, the concentration of the PAHs dissolved versus the increasing concentrations of the CDs used were represented.

physchem [4] = conditions: 25 °C, water, thermodynamic from solid
Method: as §1

physchem [5] = conditions: 25 °C, aqueous with cosolvent or surfactant or cyclodextrin, thermodynamic from solid
[6] = PAHs aqueous solubility in the absence of CD; conditions: 25 °C, water, thermodynamic from solid
Method: as §1

[7] = Phase solubility studies (Higuchi and Connors) with HP-β-CD; conditions: for Apparent stability constant Kc: HP-β-CD 0 to 0.1 M, 1:1 complex, 25°C
[8] = Phase solubility studies (Higuchi and Connors) with HP-γ-CD; conditions: HP-γ-CD 0 to 0.1 M; 1:1 complex; 25°C
[9] = ref [40], cited from earlier work

Molecule: 2-Hydroxypropyl-β-CD [HP-β-CD]
- Decreasing order of Se and Kc [1]: PHE>ANT>FLT>FLU>PYR>ACE
- Decreasing order of PAHs apparent solubility [1]: PHE≥FLU>ACE>FLT>ANT>PYR

Molecule: c1ccc2c(c1)Cc1ccccc1-2 [FLU, fluorene]
- Apparent stability constant Kc [2]: 2906 (±164) M^−1
- solubility at 1 week ([2]; aqueous RAMEB solution): ≤ 574 µg/mL
- PAHs aqueous solubility (S) [3]: 1.90 µg/mL

Molecule: c1ccc2c(c1)-c1cccc3cccc-2c13 [FLT, fluoranthene]
- solubility (physchem [4]): 0.26 µg/mL (≈ 1.29 µM)
- solubility (physchem [5]): ≤ 101 µg/mL

Molecule: c1cc2c3c(cccc3c1)CC2 [ACE, acenaphthene]
- solubility at 1 week [6]: 1.93 µg/mL (≈ 12.5 µM)
- Apparent stability constant Kc [7]: 661 (±35) M^−1
- Apparent stability constant Kc [8]: 758 (±41) M^−1
- Apparent stability constant Kc [2]: 644 (±12) M^−1
- solubility at 1 week ([1]; 25 °C, aqueous with cosolvent or surfactant or cyclodextrin, thermodynamic from solid): 125 to 147 µg/mL (≈ 811 to 953 µM)

Molecule: hydroxypropyl-γ-CD [HP-γ-CD]
- Decreasing order of Se and Kc [1]: PYR>ACE>FLT>PHE>ANT>FLU

Molecule: c1ccc2c(c1)ccc1ccccc12 [PHE, phenanthrene]
- solubility at 1 week [6]: 1.2 µg/mL (≈ 6.73 µM)
- Apparent stability constant Kc [7]: 3871 (±322) M^−1
- Kc value relative to that for ACE ([7]; HP-β-CD complexes): ~6 fold
- Apparent stability constant Kc [8]: 447 (±17) M^−1
- Apparent stability constant Kc [2]: 4925 (±511) M^−1
- solubility at 1 week ([2]; aqueous RAMEB solution): ≤ 572 µg/mL

Molecule: c1cc2ccc3cccc4ccc(c1)c2c34 [PYR, pyrene]
- Kc with natural γ-CD ([9]; natural γ-CD, [41]): 250 to 300 M⁻¹

Molecule: randomly methylated-β-CD [RAMEB]
- Decreasing order of Se and Kc [1]: ANT>PHE>FLT>FLU>ACE>PYR
- Decreasing order of PAHs apparent solubility [1]: FLU≥PHE>ACE>FLT>ANT>PYR

Molecule: c1ccc2cc3ccccc3cc2c1 [ANT, anthracene]
- Kc with γ-CD ([9]; γ-CD, [42]): 240 to 330 M⁻¹
- solubility at 1 week [6]: 0.076 µg/mL (≈ 0.426 µM)
- Apparent stability constant Kc [7]: 3284 (±204) M^−1
- Apparent stability constant Kc [8]: 234 M^−1 and 234 (±35) M^−1
- solubility at 1 week [2]: ≤ 41 µg/mL
- Apparent stability constant Kc [2]: 5399 (±52) M^−1
- Kc value relative to the lowest one (PYR) ([2]; RAMEB complexes): about 10 fold
